Patent US9315475B2 (MERCK SHARP & DOHME CORP., priority 2011, dated 2016)

These compounds were tested on HIV-1 (H9IIIB strain) (assay: Antiviral acute infection assay in cell culture (Spread)). Details: Human immunodeficiency virus 1, T-lymphoid, HIV-1 H9IIIB infection of MT-4 human T-lymphoid cells in 10% FBS; mean of at least two independent experiments.
Assay type: cell-based
Excerpt: Antiviral Assays in Cell Culture (“Spread”)
Acute Infection Assay (“Spread”) data were generated using HIV-1 (H9IIIB strain) infection of MT-4 human T-lymphoid cells in 10% FBS, and according to the methods disclosed by J. P. Vacca et al, “L-735,524: An orally bioavailable human immunodeficiency virus type 1 protease inhibitor,” Proc. Natl. Acad. Sci. USA, Vol. 91, pp. 4096-4100 (April 1994).

SMILES | EC50
O=C(C[C@@H](c1ccc(Cl)cc1)c1ccc2c(c1)CCO2)Nc1cncc(F)c1CC[C@@H]1CN[C@H](COC(=O)NCC(F)(F)F)CO1 [Example 114, {(3S,6R)-6-[2-(3-{[(3S)-3-(4-Chlorophenyl)-3-(2,3-dihydro-1-benzofuran-5-yl)propanoyl]amino}-5-fluoropyridin-4-yl)ethyl]morpholin-3-yl}methyl (2,2,2-trifluoroethyl)carbamate] | 14 nM
COC(=O)N[C@H](C(=O)Nc1cccc(F)c1OC[C@@H]1CN[C@H](COC(N)=O)CO1)[C@@H](c1ccc(F)cc1)c1cccc(F)c1 [Example 117, (βS)—N-[2-({(2S,5S)-5-[(Carbamoyloxy)methyl]morpholin-2-yl}methoxy)-3-fluorophenyl]-4-fluoro-β-(3-fluorophenyl)-Nα-(methoxycarbonyl)-L-phenylalaninamide] | 18 nM
O=C(C[C@@H](c1ccc(F)cc1)c1cccc(F)c1F)Nc1cccc(F)c1CC[C@@H]1CN[C@H](COC(=O)NCC(F)(F)F)CO1 [Example 153, {(3S,6R)-6-[2-(2-{[(3S)-3-(2,3-difluorophenyl)-3-(4-fluorophenyl)propanoyl]amino}-6-fluoro-phenyl)ethyl]morpholin-3-yl}methyl (2,2,2-trifluoroethyl)carbamate] | 130 nM
COC(=O)N[C@H](C(=O)Nc1cccc(F)c1CC[C@@H]1CN[C@H](COC(=O)NCC(F)(F)F)CO1)[C@@H](c1ccc(F)cc1)c1ccccc1OC(F)(F)F [Example 111, (βS)-4-Fluoro-N-(3-fluoro-2-{2-[(2R,5S)-5-({[(2,2,2-trifluoroethyl)carbamoyl]oxy}methyl)morpholin-2-yl]ethyl}phenyl)-Nα-(methoxycarbonyl)-β-[2-(trifluoromethoxy)phenyl]-L-phenylalaninamide] | 25 nM
N[C@H](C(=O)Nc1cncc(F)c1CC[C@@H]1CN[C@H](COC(=O)NCC(F)(F)F)CO1)[C@@H](c1ccc(F)cc1)C1CCOCC1 [Example 127, (βR)-4-Fluoro-N-(5-fluoro-4-{2-[(2R,5S)-5-({[(2,2,2-trifluoroethyl)carbamoyl]oxy}methyl)morpholin-2-yl]ethyl}pyridin-3-yl)-β-(tetrahydro-2H-pyran-4-yl)-L-phenylalaninamide] | 71 nM

More lines, now with the values ahead:

EC50 | SMILES
53 nM | N[C@H](C(=O)Nc1cccc(F)c1CC[C@@H]1CN[C@H](COC(=O)NCCOc2ccccc2)CO1)C(c1ccc(F)cc1)c1ccc(F)cc1 [Example 222, 4-fluoro-N-(3-fluoro-2-{2-[(2R,5S)-5-({[(2-phenoxyethyl)carbamoyl]oxy}methyl)morpholin-2-yl]ethyl}phenyl)-β-(4-fluorophenyl)-L-phenylalaninamide]
50 nM | COCCOc1ccc([C@@H](CC(=O)Nc2cncc(F)c2CC[C@@H]2CN[C@H](COC(=O)NCC(F)(F)F)CO2)c2ccc(F)cc2)cc1 [Example 181, [(3S,6R)-6-{2-[3-fluoro-5-({(3R)-3-(4-fluorophenyl)-3-[4-(2-methoxy-ethoxy)phenyl]propanoyl}amino)pyridin-4-yl]ethyl}morpholin-3-yl]methyl (2,2,2-trifluoroethyl)carbamate]
15 nM | COC(=O)N[C@H](C(=O)Nc1cncc(F)c1CC[C@@H]1CN[C@H](COC(=O)NCC(F)(F)F)CO1)[C@@H](c1ccc(F)cc1)c1cccc(F)c1F [Example 302, (βS)-2,3-difluoro-β-(4-fluorophenyl)-N-(5-fluoro-4-{2-[(2R,5S)-5-({[(2,2,2-trifluoroethyl)carbamoyl]oxy}methyl)morpholin-2-yl]ethyl}pyridin-3-yl)-Nα-(methoxy-carbonyl)-L-phenylalaninamide]
39 nM | O=C(CC(c1ccc(F)cc1)c1ccc(F)cc1)Nc1cncc(F)c1CC[C@@H]1CN[C@H](COC(=O)NC(CO)C2CC2)CO1 (stereo partly drawn) [Example 175, {(3S,6R)-6-[2-(3-{[3,3-bis(4-fluoro-phenyl)propanoyl]amino}-5-fluoropyridin-4-yl)ethyl]morpholin-3-yl}methyl (1-cyclopropyl-2-hydroxyethyl)carbamate]
